Assays:
[1] = target: T1, Botulinum neurotoxin type A (Clostridium botulinum, UniProt P0DPI0); experiment: Inhibition of Clostridium botulinum BoNT/A using SNAP-25 (66-mer) as substrate by LC-MS analysis
[2] = target: T1, Botulinum neurotoxin type A; experiment: Inhibition of Clostridium botulinum BoNT/A light chain

T1 sequence (P0DPI0 2-448 limits assumed): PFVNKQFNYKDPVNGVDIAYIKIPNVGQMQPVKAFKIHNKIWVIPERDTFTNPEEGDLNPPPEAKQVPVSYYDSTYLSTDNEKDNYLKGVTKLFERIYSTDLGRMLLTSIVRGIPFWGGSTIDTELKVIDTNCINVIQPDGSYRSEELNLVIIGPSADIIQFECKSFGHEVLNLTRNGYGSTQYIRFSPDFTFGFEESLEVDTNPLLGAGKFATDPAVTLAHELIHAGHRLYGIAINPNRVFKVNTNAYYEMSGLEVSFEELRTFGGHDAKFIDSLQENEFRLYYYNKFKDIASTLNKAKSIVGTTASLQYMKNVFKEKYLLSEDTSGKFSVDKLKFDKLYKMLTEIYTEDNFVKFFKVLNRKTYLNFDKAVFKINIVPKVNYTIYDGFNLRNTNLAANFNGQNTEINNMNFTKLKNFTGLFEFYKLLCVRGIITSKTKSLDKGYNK

Structure (SMILES)	IC50 [1]	Ki [2]
O=C(C[C@@H](CCO)c1ccc(Cl)cc1Cl)NO	1 µM	–
N=C(N)NCCC[C@H](N)C(=O)NO	–	60 µM
O=C(C[C@H](CCO)c1ccc(Cl)cc1)NO	36 µM	–
O=C(C[C@H](CCO)c1ccc(Cl)cc1Cl)NO	21 µM	–
O=C(C[C@@H](CCO)c1ccc(Cl)cc1)NO	8 µM	–

Reference: ChEMBL document CHEMBL4834496 (ACS Med Chem Lett, 2021)
